# Measurements reported in patent US20230270692A1, “COMPOUNDS FOR CHRONIC DISORDERS” (Pillai Universal LLC, priority 2020, published 2023).
# Columns and labels:
# HUMSCs = assay: Neuronal differentiation of human umbilical cord stem cells; format: cell-based
# Procedure: After treatment at 72 h, the ratio of neuron-like cells reached high, with the cell bodies contracted and the protuberances lengthened further. The MSCs retained this morphology for the duration of the induction.
# SARS-CoV-2 [1] = assay: microbe, parasite or virus in culture; format: cell-based
# SARS-CoV-2 [2] = assay: Antiviral activity against SARS-CoV-2 in Calu-3 cells; format: cell-based
# [3] = Cytotoxicity in Calu-3 cells; format: cell-based; conditions: human, Calu-3 lung epithelial cells, read-out: 50% cytotoxic concentration (CC50)
# Procedure: The antiviral activity of Compound I was assessed against SARS-CoV-2 in Calu-3 cultures. […] To determine if Compound I could inhibit replication, we first evaluated antiviral activity and cytotoxicity in the continuous human lung epithelial cell line Calu-3 cells.
# [4] = test system: cytokines and chemokines in the lungs; assay: Xenograft stage 4 metastasized breast cancer animal model, lung cytokines and pathology; format: in vivo
# From the text: In a xenograft stage 4 metastasized breast cancer animal model, Compound I decreased production of cytokines (tumor necrosis factor alpha [TNF-α] and interleukin-6 [IL6]) and chemokines (CXCL10, CCL2, CCL3, CCL5), and were correlated with migration of Natural Killer cells and macrophages and observed in the lungs.
# [5] = Reduction of hydroxychloroquine side effects; conditions: treatment of COVID-19
# From the text: Coronavirus disease (COVID-19) is an infectious disease caused by virus SARS-CoV-2. The disease causes respiratory illness with symptoms such as a cough, fever, and in more severe cases, difficulty breathing. At present, one drug that may be effective in treating COVID-19 is hydroxychloroquine. However the drug hydroxychloroquine causes serious side effects including cardiovascular diseases, eye damage, mild or severe bronchospasm, and also affects mental health. The effect of Compound I of the present invention in reducing the side effects associated with hydroxychloroquine was studied according to methods known in the art.
# [6] = 28-day oral sub-chronic toxicity (OECD 408); format: in vivo
# Procedure: […] […] Rats in control groups were administrated orally with the same volume of distilled water (vehicle). During the experimental period, the body weights of all groups were measured once a week. Animals were also visually observed for mortality, changes in behavioral patterns, changes in physical appearance, and symptoms of illness. […] Blood samples were collected for the measurement of hematological (EDTA-2K coated tubes) and biochemical (dry tubes) parameters. After euthanasia, the rats were sacrificed and organs were removed for necropsy, organ weight measurement, and histopathological examination.
# Urinalysis: On the last week of the treatment period, a urine test was conducted in all rat groups. Fresh urine was collected overnight from all animals, to determine specific gravity, pH, levels of leukocytes, nitrites, protein, glucose, ketones, blood, urobilinogen, and bilirubin. Urine samples were analyzed using an automatic urine analyzer and test strips.
# Hematology and serum biochemistry: For the hematological investigation, all animals fasted overnight but were allowed access to water ad libitum. The rats were then anesthetized, and blood samples were collected from the abdominal aorta. Whole blood was collected in EDTA tubes (containing potassium salt of ethylenediamine-tetracetic acid) and processed immediately for hematological analysis. The parameters measured were red blood cell count (RBC), hematocrit (HCT), hemoglobin (HGB), mean corpuscular volume (MCV), mean corpuscular hemoglobin concentration (MCHC), mean corpuscular hemoglobin (MCH), white blood cell count (WBC), neutrophils (NEU), eosinophils (EOS), basophils (BASO), lymphocytes (LYM), and monocytes (MONO). The hematological analysis was performed using an automatic hematological analyzer. For the measurement of biochemical parameters, dry tubes containing collected blood were centrifuged at 3000 rpm at 5° C. for 15 min to obtain the serum. Serum samples were analyzed using an automated biochemistry analyzer. The clinical biochemistry parameters included, total serum protein (TP), albumin (ALB), total bilirubin (T-BIL), alkaline phosphatase (ALP), alanine aminotransferase (ALT), aspartate aminotransferase (AST), uric acid (URIC), urea (UREA), creatinine (CREA), low-density lipoprotein-cholesterol (LDL-C), high-density lipoprotein-cholesterol (HDL-C), total cholesterol (TC), triglycerides (TG), and glucose (GLU). Serum electrolytes such as calcium (Ca2+), sodium (Nat), potassium (K^+), and chloride (CF) were also determined.
# Necropsy and organ weight: All groups of rats were subjected to gross necropsy, which included the examination of the thoracic organs, external surface, and all of the internal organs. Vital organs were carefully examined macroscopically for any type of abnormalities. Thereafter, various organs, including the heart, liver, kidneys, stomach, lung, spleen, adrenals, thymus, epididymis, testes, uterus, and ovaries were surgically removed, cleaned with ice-cold saline solution, placed on absorbent papers, and then weighed (absolute organ weight in grams). The relative organ weight (ROW) of each animal was then calculated as follows: ROW=[Absolute organ weight (g)÷Bodyweight of rat on sacrifice day (g)]×100.
# Histopathology: The major organs (lung, heart, liver, kidney) and reproductive organs (testis and ovary) were removed for histopathological examinations. After weight measurement, the organs were quickly fixed in 10% buffered formalin (pH 7.4). Following fixation, tissue specimens were dehydrated in a graded series of ethanol (70-100%), cleared in toluene, and finally enclosed in paraffin. Thereafter, 5-μm thin sections were prepared using a microtome (Leica) and stained with Haematoxylin and Eosin (H & E) prior to microscopic examination.
# Vero cells = conditions: any of the concentrations tested
# in vitro = conditions: African green monkey
# [7] = test system: xenograft nude mice models (triple-negative breast cancer, pancreatic, liver, colon cancer); assay: In vivo metastasis / stage IV tumor studies in xenograft nude mice versus standard drugs; conditions: mice, after 9 months since administration
structure (smiles),measurement,setting,value
COc1cc(/C=C/C(=O)/C=C/C=C/c2cc(OC)c(O)c(OC)c2)cc(OC)c1 [Compound I],Neuronal cell type formation,HUMSCs,induced
same,reduction in viral RNA in supernatant and cell pellets,"SARS-CoV-2 [1]; 1 μM, at 48 h, compared to control samples",99%
same,viral RNA in supernatant and cell pellets,SARS-CoV-2 [1]; 11 μM (figure legend),reduction in viral RNA
same,IC50,"SARS-CoV-2 [1]; Severe acute respiratory syndrome coronavirus 2, Vero cells, MOI 0.1, read-out: IC50 (inhibition of virus yield)",1 µM
same,viral load measured by nucleoprotein expression,"SARS-CoV-2 [1]; Vero cells, 48 h p.i., immunofluorescence",substantially reduced
same,reduction in cell-associated viral RNA,SARS-CoV-2 [1]; at 24 h,99%
same,reduction in viral RNA present in the supernatant,"SARS-CoV-2 [1]; at 24 h, compared to vehicle DMSO",100%
same,viral material,SARS-CoV-2 [1]; by 36 h,effective loss of essentially all viral material
same,inhibition of intracellular SARS-CoV-2 RNA levels,"SARS-CoV-2 [2]; Calu-3, 24 h p.i., RT-PCR",more than 95 % of control
same,IC50,"SARS-CoV-2 [2]; Severe acute respiratory syndrome coronavirus 2, Calu-3, read-out: average half-maximum effective concentration (IC50)",1.5 µM
same,IC50,"SARS-CoV-2 [2]; Severe acute respiratory syndrome coronavirus 2, Calu-3, read-out: calculated IC50 (viral genomic RNA in supernatants, qRT-PCR)",5 µM
same,IC50,"SARS-CoV-2 [2]; Severe acute respiratory syndrome coronavirus 2, Calu-3 cultures, 0.1-5 μM, read-out: average IC50 (reduction in replication)",0.01 µM
same,IC50,"SARS-CoV-2 [2]; Severe acute respiratory syndrome coronavirus 2, calu-3 cell line, replication, read-out: IC 50",10 µM
same,virus titer of treated cells,"SARS-CoV-2 [2]; calu-3, 10 μM Compound I treated cells",≤ 102 TCID50/ml
same,CC50,[3],> 100 µM
same,lung histopathology,[4]; by day 7,normal lung pathology without any pneumonitis observed
same,"production of cytokines (TNF-α, IL6) and chemokines (CXCL10, CCL2, CCL3, CCL5)",[4]; in vivo,decreased
same,effect on hydroxychloroquine side effects,[5],assists in potentiating hydroxychloroquine by reducing the side effects
same,"plasma levels of AST, ALT, ALP activities","[6]; 200, 500, 1000 and 2000 mg/kg, both sexes",insignificant changes
same,food and water intakes,"[6]; 28 d, P>0.05 vs control",no significant changes
same,body weight,[6]; acute and subacute toxicity groups,did not elicit any deleterious effect on body weight
same,"level of creatinine, electrolytes, urea or uric acid","[6]; all doses, both sexes",no significant difference
same,WBC count and subtypes,[6]; any of the doses,did not cause any significant changes
same,"hematological parameters (WBC, RBC, PCV, hemoglobin)",[6]; compared to the control group,not significantly altered
same,histopathology: liver,[6]; female rats,almost normal cellular architecture with normal hepataocytes
same,Relative organ weight (ROW),"[6]; liver, brain, kidney, heart, spleen",did not elicit any adverse effects to the vital organs
same,histopathology: heart,[6]; male and female rats,appeared normal
same,histopathology: kidney,[6]; male and female rats,"almost normal size and shape of glomeruli, tubules, intestinum and blood vesicles"
same,histopathology: lungs,[6]; male and female rats,no lymphocytic infiltrations were observed
same,histopathology: pancreas,[6]; male and female rats,almost no abnormalities were observed
same,histopathology: stomach,[6]; male and female rats,normal cellular architecture
same,histopathology: liver,[6]; male rats,"normal hepatocytes along with normal portal triads, sinusoidal spaces and central venous system"
same,"histopathology: reproductive organs (testis, ovary)","[6]; rat, in vivo",normal pathology
same,"levels of total protein, albumin, conjugated bilirubin and bilirubin","[6]; rat, in vivo",no significant difference
same,treatment related death,"[6]; subacute, 28-day, both sexes",no treatment related death was observed
same,Toxicity,Vero cells,no toxicity was observed
same,CC50,in vitro,> 15 µM
same,relapse of disease,[7],no relapse of disease
